The record followed here is patent publication US20260116920A1, “HUMAN TRANSFERRIN RECEPTOR BINDING PEPTIDE” (PEPTIDREAM INC., priority 2021, published 2026).

Positions of bridges follow the written chain, without caps; N, C: chain ends. Non-standard residues stand in square brackets, D forms with d. Residues, ends and D or L forms follow the SMILES beside them. *: point of attachment. Trp(1-CH2COOH) = N[C@@H](Cc1cn(CC(=O)O)c2ccccc12)C(=O)O; Nle(6-morpholino) = N[C@@H](CCCCN1CCOCC1)C(=O)O; Phe(3-COOH) = N[C@@H](Cc1cccc(C(=O)O)c1)C(=O)O; Trp(7-aza) = N[C@@H](Cc1c[nH]c2ncccc12)C(=O)O; NH(CH2CH2O)8Me = COCCOCCOCCOCCOCCOCCOCCOCCN*; NMePhe(3-Cl) = CN[C@@H](Cc1cccc(Cl)c1)C(=O)O; 3Pal(6-NH2) = Nc1ccc(C[C@H](N)C(=O)O)cn1; NMeY = CN[C@@H](Cc1ccc(O)cc1)C(=O)O; 4Pal = N[C@@H](Cc1ccncc1)C(=O)O; PEG4 = NCCOCCOCCOCCOCCC(=O)O; Carboxymethyl = O=C(O)C* Where only a bound is given, the exact number is not on record here.

T1 sequence (P02786 89-760 limits assumed): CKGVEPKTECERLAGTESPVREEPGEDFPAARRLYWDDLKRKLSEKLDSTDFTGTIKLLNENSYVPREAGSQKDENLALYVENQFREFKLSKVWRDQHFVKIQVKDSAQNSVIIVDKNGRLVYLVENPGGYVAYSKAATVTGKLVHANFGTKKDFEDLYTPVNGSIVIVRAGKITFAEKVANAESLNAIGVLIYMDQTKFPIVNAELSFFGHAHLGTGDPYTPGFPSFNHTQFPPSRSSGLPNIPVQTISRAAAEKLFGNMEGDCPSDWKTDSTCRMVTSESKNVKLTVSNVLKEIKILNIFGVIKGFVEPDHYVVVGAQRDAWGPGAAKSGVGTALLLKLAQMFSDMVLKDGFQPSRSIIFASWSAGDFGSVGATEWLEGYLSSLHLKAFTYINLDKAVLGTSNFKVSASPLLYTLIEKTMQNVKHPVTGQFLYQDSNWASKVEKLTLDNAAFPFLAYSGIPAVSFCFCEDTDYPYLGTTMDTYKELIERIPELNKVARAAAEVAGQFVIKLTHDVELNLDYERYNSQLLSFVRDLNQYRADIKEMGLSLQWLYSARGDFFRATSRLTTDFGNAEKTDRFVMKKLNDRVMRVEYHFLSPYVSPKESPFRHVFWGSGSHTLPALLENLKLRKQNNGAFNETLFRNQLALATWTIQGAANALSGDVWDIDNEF

The first assay addresses T1, human transferrin receptor (hTfR) (Homo sapiens, UniProt P02786).
T1 construct: made in house
The assay can be described thus: Evaluation of molecular interaction between transferrin receptor (hTfR) and peptide using surface plasmon resonance (SPR). It is filed as binding. Conditions: KD class for binding to hTfR by SPR; peptide with the linker shown in the same line; 'low signal indicates no activity'; read-out: SPR. In outline: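 Single-cycle SPR kinetics, KD by least-squares sensorgram fitting, with peptide series of 100, 50, 25, 10 and 5 nM. Running buffer: 10 mM HEPES pH 8.0, 150 mM NaCl, 0.05% Tween 20, 0.1% BSA, 1.0% DMSO. Surface: hTfR dimer covalently coupled (EDC/NHS) onto Ni-NTA chip.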
In the case of `CC[C@H](C)[C@@H]1NC(=O)[C@H](Cc2ccc(O)cc2)NC(=O)[C@H](Cc2ccc(O)cc2)NC(=O)[C@H](CC(N)=O)NC(=O)[C@H](Cc2c[nH]c3ccccc23)N(C)C(=O)[C@H](C(C)C)NC(=O)[C@H](Cc2ccccc2)N(C)C(=O)[C@H](C(C)C)NC(=O)[C@H](C)NC(=O)CSC[C@@H](C(=O)NCC(=O)N[C@H](CO)C(=O)N[C@H](CO)C(=O)N[C@H](CO)C(=O)N[C@H](CO)C(=O)N[C@H](CO)C(=O)N[C@@H](CCCCN=[N+]=[N-])C(N)=O)NC(=O)[C@H](Cc2ccc(O)cc2)N(C)C(=O)[C@H](Cc2ccc(O)cc2)NC(=O)[C@H](CCCNC(=N)N)NC(=O)[C@H](CCCCN)NC(=O)[C@H]([C@@H](C)CC)NC1=O` [894_3200], the Kd is below 1 nM. `CC[C@H](C)[C@@H]1NC(=O)[C@H](Cc2ccc(OCC(=O)O)cc2)NC(=O)[C@H](Cc2ccc(O)cc2)NC(=O)[C@H](CC(N)=O)NC(=O)[C@H](Cc2cn(CC(=O)O)c3ccccc23)NC(=O)[C@H](C(C)C)NC(=O)[C@H](Cc2cccc(Cl)c2)N(C)C(=O)[C@H](C(C)C)NC(=O)[C@H](C)NC(=O)CSC[C@@H](C(=O)NCC(=O)N[C@@H](CCCCN=[N+]=[N-])C(N)=O)NC(=O)[C@H](Cc2ccc(O)cc2)N(C)C(=O)[C@H](Cc2ccccc2)NC(=O)[C@H](CCC(N)=O)NC(=O)[C@H](CCCNC(=N)N)NC(=O)[C@H]([C@@H](C)CC)NC1=O` [894_3177]: the Kd lay in the range of 1 to 100 nM. On the same count and under the same terms, next, `CC[C@H](C)[C@@H]1NC(=O)[C@H](Cc2ccc(OCC(=O)O)cc2)NC(=O)[C@H](Cc2ccc(O)cc2)NC(=O)[C@H](CC(N)=O)NC(=O)[C@H](Cc2cn(CC(=O)O)c3ccccc23)NC(=O)[C@H](C(C)C)NC(=O)[C@H](Cc2cccc(Cl)c2)N(C)C(=O)[C@H](C(C)C)NC(=O)[C@H](C)NC(=O)CSC[C@@H](C(=O)NCC(=O)N[C@@H](CCCCN=[N+]=[N-])C(N)=O)NC(=O)[C@H](Cc2ccc(O)cc2)N(C)C(=O)[C@H](Cc2ccccc2)NC(=O)[C@H](CCCNC(=N)N)NC(=O)[C@H](CCC(=O)NCCOCCOCCOCCOCCOCCOCCOCCOC)NC(=O)[C@H]([C@@H](C)CC)NC1=O` [894_3172]: 1 to 100 nM.

Still in this assay, the particulars now being: peptide with linker, surface plasmon resonance; read-out: SPR (KD class for binding to hTfR).
On to `CC[C@H](C)[C@@H]1NC(=O)[C@H](Cc2ccc(OCC(=O)O)cc2)NC(=O)[C@H](Cc2ccc(O)cc2)NC(=O)[C@H](CC(N)=O)NC(=O)[C@H](Cc2c[nH]c3ncccc23)NC(=O)[C@H](C(C)C)NC(=O)[C@H](Cc2cccc(Cl)c2)N(C)C(=O)[C@H](C(C)C)NC(=O)[C@H](C)NC(=O)CSC[C@@H](C(=O)NCCOCCOCCOCCOCCC(N)=O)NC(=O)[C@H](Cc2ccc(O)cc2)N(C)C(=O)[C@H](CCC(=O)NCCOCCOCCOCCOCCOCCOCCOCCOC)NC(=O)[C@H](CCCCN2CCOCC2)NC(=O)[C@H](CCC(=O)NCCOCCOCCOCCOCCOCCOCCOCCOC)NC(=O)[C@H]([C@@H](C)CC)NC1=O` [compound 234] ({CH2CO}-AV[NMePhe(3-Cl)]V[Trp(7-aza)]NYY(Carboxymethyl)IIE(NH(CH2CH2O)8Me)[Nle(6-morpholino)]E(NH(CH2CH2O)8Me)[NMeY]C[PEG4]-NH2; thioether N-15), for which the Kd lay in the range of 100 to 1000 nM.

Staying with this assay, now noted: surface plasmon resonance, binding to hTfR; KD class symbol; read-out: SPR (KD value).
Turning to `CC[C@H](C)[C@@H]1NC(=O)[C@H](Cc2ccc(OCC(=O)O)cc2)NC(=O)[C@H](Cc2ccc(N)nc2)NC(=O)[C@H](CC(N)=O)NC(=O)[C@H](Cc2cn(CC(=O)O)c3ccccc23)NC(=O)[C@H](C(C)C)NC(=O)[C@H](Cc2cccc(Cl)c2)N(C)C(=O)[C@H](C(C)C)NC(=O)[C@H](C)NC(=O)CSC[C@@H](C(=O)NCCOCCOCCOCCOCCC(N)=O)NC(=O)[C@H](Cc2ccc(O)cc2)N(C)C(=O)[C@H](Cc2ccncc2)NC(=O)[C@H](CCC(=O)NCCOCCOCCOCCOCCOCCOCCOCCOC)NC(=O)[C@H](CCCNC(=N)N)NC(=O)[C@H]([C@@H](C)CC)NC1=O` [compound 88] ({CH2CO}-AV[NMePhe(3-Cl)]V[Trp(1-CH2COOH)]N[3Pal(6-NH2)]Y(Carboxymethyl)IIRE(NH(CH2CH2O)8Me)[4Pal][NMeY]C[PEG4]-NH2; thioether N-15), the Kd was 100 to 1000 nM.

For `CC[C@H](C)[C@@H]1NC(=O)[C@H](Cc2ccc(OCC(=O)O)cc2)NC(=O)[C@H](Cc2ccc(N)nc2)NC(=O)[C@H](CC(N)=O)NC(=O)[C@H](Cc2c[nH]c3ccccc23)NC(=O)[C@H](C(C)C)NC(=O)[C@H](Cc2cccc(Cl)c2)N(C)C(=O)[C@H](C(C)C)NC(=O)[C@H](C)NC(=O)CSC[C@@H](C(=O)NCCOCCOCCOCCOCCC(N)=O)NC(=O)[C@H](Cc2ccc(O)cc2)N(C)C(=O)[C@H](Cc2cccc(C(=O)O)c2)NC(=O)[C@H](CCCNC(=N)N)NC(=O)[C@H](CCCNC(=N)N)NC(=O)[C@H]([C@@H](C)CC)NC1=O` [compound 91] ({CH2CO}-AV[NMePhe(3-Cl)]VWN[3Pal(6-NH2)]Y(Carboxymethyl)IIRR[Phe(3-COOH)][NMeY]C[PEG4]-NH2; thioether N-15), the Kd was 1 to 100 nM.

On to `CC[C@H](C)[C@@H]1NC(=O)[C@H](Cc2ccc(OC)cc2)NC(=O)[C@H](Cc2ccc(O)cc2)NC(=O)[C@H](CC(N)=O)NC(=O)[C@H](Cc2c[nH]c3ccc(Cl)cc23)NC(=O)[C@H](C(C)C)NC(=O)[C@H](Cc2ccccc2)N(C)C(=O)[C@H](C(C)C)NC(=O)[C@H](C)NC(=O)CSC[C@@H](C(=O)NCCOCCOCCOCCOCCC(N)=O)NC(=O)[C@H](Cc2ccc(O)cc2)N(C)C(=O)[C@H](Cc2ccccc2)NC(=O)[C@@H](CCCNC(=N)N)NC(=O)[C@H](CCCNC(=N)N)NC(=O)[C@H]([C@@H](C)CC)NC1=O` [compound 21], for which the Kd lay within 1 to 100 nM.

On to `CC[C@H](C)[C@@H]1NC(=O)[C@H](Cc2ccc(O)cc2)NC(=O)[C@H](Cc2ccc(O)cc2)NC(=O)[C@H](CC(N)=O)NC(=O)[C@H](Cc2c[nH]c3ccccc23)NC(=O)[C@H](C(C)C)NC(=O)[C@H](Cc2ccccc2)N(C)C(=O)[C@H](C(C)C)NC(=O)[C@H](C)NC(=O)CSC[C@@H](C(=O)NCC(=O)N[C@H](CCC(=O)O)C(=O)N[C@H](CCC(=O)O)C(=O)N[C@H](CCC(=O)O)C(=O)N[C@H](CCC(=O)O)C(=O)N[C@H](CCC(=O)O)C(=O)N[C@@H](CSCC(=O)NC)C(N)=O)NC(=O)[C@H](Cc2ccc(O)cc2)N(C)C(=O)[C@H](Cc2ccc(O)cc2)NC(=O)[C@H](CCCNC(=N)N)NC(=O)[C@H](CCCNC(=N)N)NC(=O)[C@H]([C@@H](C)CC)NC1=O` [compound 107], for which the Kd was 1 to 100 nM. Regarding `CC[C@H](C)[C@@H]1NC(=O)[C@H](Cc2ccc(OCC(=O)O)cc2)NC(=O)[C@H](Cc2ccc(O)cc2)NC(=O)[C@H](CC(N)=O)NC(=O)[C@H](Cc2c[nH]c3ncccc23)NC(=O)[C@H](C(C)C)NC(=O)[C@H](Cc2cccc(Cl)c2)N(C)C(=O)[C@H](C(C)C)NC(=O)[C@H](C)NC(=O)CSC[C@@H](C(=O)NCCOCCOCCOCCOCCC(N)=O)NC(=O)[C@H](Cc2ccc(O)cc2)N(C)C(=O)[C@H](Cc2ccncc2)NC(=O)[C@H](CCCNC(=N)N)NC(=O)[C@H](CCC(N)=O)NC(=O)[C@H]([C@@H](C)CC)NC1=O` [compound 137], the Kd was in the range of 1 to 100 nM. As to `CC[C@H](C)[C@@H]1NC(=O)[C@H](Cc2ccc(OCC(=O)O)cc2)NC(=O)[C@H](Cc2ccc(N)nc2)NC(=O)[C@H](CC(N)=O)NC(=O)[C@H](Cc2cn(CC(=O)O)c3ccccc23)NC(=O)[C@H](C(C)C)NC(=O)[C@H](Cc2cccc(Cl)c2)N(C)C(=O)[C@H](C(C)C)NC(=O)[C@H](C)NC(=O)CSC[C@@H](C(=O)NCCOCCOCCOCCOCCC(N)=O)NC(=O)[C@H](Cc2ccc(O)cc2)N(C)C(=O)[C@H](Cc2ccccc2)NC(=O)[C@H](CCCNC(=N)N)NC(=O)[C@H](CCCNC(=N)N)NC(=O)[C@H]([C@@H](C)CC)NC1=O` [compound 71] ({CH2CO}-AV[NMePhe(3-Cl)]V[Trp(1-CH2COOH)]N[3Pal(6-NH2)]Y(Carboxymethyl)IIRRF[NMeY]C[PEG4]-NH2; thioether N-15), the Kd was 1 to 100 nM.

On to `CC[C@H](C)[C@@H]1NC(=O)[C@H](Cc2ccc(OCC(=O)O)cc2)NC(=O)[C@H](Cc2ccc(O)cc2)NC(=O)[C@H](CC(N)=O)NC(=O)[C@H](Cc2c[nH]c3ccccc23)NC(=O)[C@H](C(C)C)NC(=O)[C@H](Cc2cccc(Cl)c2)N(C)C(=O)[C@H](C(C)C)NC(=O)[C@H](C)NC(=O)CSC[C@@H](C(=O)NCCOCCOCCOCCOCCC(N)=O)NC(=O)[C@H](Cc2ccc(O)cc2)N(C)C(=O)[C@H](Cc2cccc(C(=O)NCCOCCOCCOCCOC)c2)NC(=O)[C@H](CCCNC(=N)N)NC(=O)[C@H](CCC(=O)NCCOCCOCCOCCOC)NC(=O)[C@H]([C@@H](C)CC)NC1=O` [compound 126], for which the Kd fell in the range of 1 to 100 nM.

In the case of `CC[C@H](C)[C@@H]1NC(=O)[C@H](Cc2ccc(OCC(=O)O)cc2)NC(=O)[C@H](Cc2ccc(O)cc2)NC(=O)[C@H](CC(N)=O)NC(=O)[C@H](Cc2c[nH]c3ncccc23)NC(=O)[C@H](C(C)C)NC(=O)[C@H](Cc2cccc(Cl)c2)N(C)C(=O)[C@H](C(C)C)NC(=O)[C@H](C)NC(=O)CSC[C@@H](C(=O)NCCOCCOCCOCCOCCC(N)=O)NC(=O)[C@H](Cc2ccc(O)cc2)N(C)C(=O)[C@H](Cc2ccncc2)NC(=O)[C@H](CCCCN2CCOCC2)NC(=O)[C@H](CCC(=O)NCCOCCOCCOCCOCCOCCOCCOCCOC)NC(=O)[C@H]([C@@H](C)CC)NC1=O` [compound 139], the Kd fell in the range of 1 to 100 nM. On to `CC[C@H](C)[C@@H]1NC(=O)[C@H](Cc2ccc(O)cc2)NC(=O)[C@H](Cc2ccc(O)cc2)NC(=O)[C@H](CC(N)=O)NC(=O)[C@H](Cc2c[nH]c3ccccc23)NC(=O)[C@H](C(C)C)NC(=O)[C@H](Cc2ccccc2)N(C)C(=O)[C@H](C(C)C)NC(=O)[C@H](C)NC(=O)CSC[C@@H](C(=O)NCCOCCOCCOCCOCCC(N)=O)NC(=O)[C@H](Cc2ccc(O)cc2)N(C)C(=O)[C@H](Cc2ccccc2)NC(=O)[C@@H](CCCNC(=N)N)NC(=O)[C@H](CCCNC(=N)N)NC(=O)[C@H]([C@@H](C)CC)NC1=O` [compound 14], for which the Kd lay within 1 to 100 nM.
